The text below walks through data of US9861689B2, “Vaccination with immuno-isolated cells producing an immunomodulator” (MaxiVAX SA, priority 2015, dated 2018).

In assay [1] the test system is STAT5 A/B [pTyr694/699]. Conditions: STAT5 TF-1 cell line, activator mode; representative value; cited from earlier work.
Assay [2] relates to STAT5 A/B [pTyr694/699]. The note with it: STAT5 TF-1 cell line, inhibitor mode, GM-CSF stimulation; representative value; cited from earlier work.
For assay [3], the system named is STAT5 A/B [pTyr694/699]. Nature of the assay: LanthaScreen STAT5 TF-1 Activator Screen, GM-CSF Stimulation. The note with it: cell supernatant. It counts as cell-based. The method, then:
A functional cell-based assay was performed in order to determine the biological activity of the GM-CSF produced by the MVX-1 cell line. Two samples of the cell supernatant containing the produced GM-CSF were tested in duplicate using the LanthaScreen™ Cellular Assay (ThermoFisher Scientific), which uses time-resolved resonance energy transfer (TR-FRET) between a terbium-labeled phosphorylation-site specific antibody (PSSA) and a green fluorescent protein (GFP fusion of a particular kinase substrate to provide an assay readout that is ratiometric, robust, and amenable to high-throughput screening (HTS) applications. The use of a GFP fusion of the target along with a single detection antibody simplifies the assay protocol, eliminates the need for beads or additional reagents, and simplifies the assay relative to other two-antibody “sandwich” approaches.
1. 32 μL of cells diluted in Assay Media to appropriate cell density are added to the assay plate. […]
4. The assay plate is incubated at 37° C./5% CO2 in a humidified incubator for a pre-determined length of time (cell line/assay specific).
5. Cells are lysed by the addition of lysis buffer with a pre-determined concentration of Tb-labeled Ab (assay specific).
6. The assay plates are incubated in the dark at room temperature for a pre-determined length of time (assay specific).
7. Read plate on a fluorescence plate reader. […]

On to “granulocyte macrophage-colony stimulating factor [GM-CSF]”, for which the EC50 in the assay with STAT5 A/B [pTyr694/699] [1] is 0.003 nM.

JAK Inhibitor I: the IC50 in the assay on STAT5 A/B [pTyr694/699] [2] is 37.3 nM.

With “GM-CSF produced by the MVX-1 cell line: huGM-CSF in cell supernatant of the genetically modified MVX-1 cell line”, in the assay on STAT5 A/B [pTyr694/699] [3] (two samples in duplicate (FIGS. 7A-D)), the “results of the functional cell-based assay” value is recorded as “all positive”. Further, the “biological activity compared with commercially available GM-CSF” value in the assay with STAT5 A/B [pTyr694/699] [3] (two samples in duplicate, within the limitations of the assay) is on record as “equivalent to commercially available GM-CSF”.

The term EC50 denotes the concentration needed to bring the measured effect to its halfway point. In general, IC50 refers to the midpoint of a concentration-inhibition curve.
